Results on 52 compounds are retold here after PubChem BioAssay AID1996.

In brackets after ≈: the same amount, converted by molar mass.

The conditions of this data set: buffer; pH 7.4; 200.0 µM.
The solubility (kinetic) is solubility judged after dilution from a stock solution rather than from solid. On to `CCN(CC)S(=O)(=O)c1cccc(-c2csc(C)n2)c1`, for which the kinetic solubility came out at 37.8 µg/mL (≈ 122 µM).
Then `CCCCn1c(Nc2ccc(OC)cc2)nc2ccccc21`, with 0.6 µg/mL (≈ 2.03 µM).
Regarding `CN=c1scc(-c2ccccc2F)n1/N=C/c1ccc(O)c(O)c1O`, the kinetic solubility was over 53.9 µg/mL.
The result for `C=CCOc1cccc(/C=C/c2nc3ccccc3c(=O)[nH]2)c1` reads over 45.7 µg/mL; that for `O=C1CC(N2CCc3ccccc32)C(=O)N1c1ccccc1` (configuration not stated), 37.3 µg/mL (≈ 128 µM).
In turn, `O=C(c1cccc([N+](=O)[O-])c1)N1CCCC(C(=O)N2CCCCC2)C1` (configuration not stated) returned a solubility (kinetic) of over 51.8 µg/mL.
For `CCCCC1(C)NC(=O)N(CC(=O)Nc2ccc(Cl)cc2C)C1=O` (configuration not stated), the kinetic solubility was determined as 48.7 µg/mL (≈ 138 µM).
The result for `O=C(NC1CCCC1)C1CCCN1C(=O)Oc1ccccc1` (configuration not stated) reads 41.9 µg/mL (≈ 139 µM); that for `O=C(COC(=O)c1cnccn1)NC1CCCc2ccccc21` (configuration not stated), over 46.7 µg/mL.
For `CN(C)C(=O)c1cc(C(=O)c2ccccc2Br)c[nH]1`, the solubility (kinetic) is 44.4 µg/mL (≈ 138 µM).
`CC(C)NC(=O)c1sc2c(c1C(=O)Nc1cccnc1)CCCC2` had a solubility (kinetic) of 6.4 µg/mL (≈ 18.6 µM).
Compound `COc1ccccc1CNC(=O)Cn1cc([N+](=O)[O-])ccc1=O` registered a kinetic solubility of over 47.6 µg/mL.
The result for `Cc1ccccc1N1CCN(Cc2nc(Cc3ccccc3)no2)CC1` reads 11 µg/mL (≈ 31.6 µM).
The result for `Cc1ccc(NS(=O)(=O)c2cccc(C(=O)N3CCCCC3)c2)cc1` reads over 53.8 µg/mL; that for `Cc1nc([N+](=O)[O-])cn1CC(=O)c1ccc(Cl)cc1`, 3.7 µg/mL (≈ 13.2 µM); that for `COc1ccc(S(=O)(=O)c2c[nH]c(=S)[nH]c2=O)cc1Cl`, over 49.9 µg/mL.
The result for `CC(=O)NC1(C(F)(F)F)NC(=O)N(c2ccc(F)cc2)C1=O` (configuration not stated) reads over 47.9 µg/mL; that for `O=S(=O)(NCCc1ccc(Cl)cc1)c1cccs1`, over 45.3 µg/mL.
On to `Cc1cc(C)n2nc(SCC(=O)Nc3ccccc3F)nc2n1`, for which the solubility (kinetic) is over 49.7 µg/mL.
In turn, `O=C(Nc1ccc(N2CCCCC2)cc1)c1ccc([N+](=O)[O-])o1` had a solubility (kinetic) of 6.9 µg/mL (≈ 21.9 µM).
`CN(C)c1nc(C#N)nc(N(C)C)n1` registered a kinetic solubility of 22.3 µg/mL (≈ 116 µM).
The result for `COc1cc(C)c(CN2CCC(Cc3ccccc3)CC2)cc1C` reads 26.4 µg/mL (≈ 81.6 µM).
Then `O=C(NCc1ccc2c(c1)OCO2)c1ccccc1Cl`, with 40.8 µg/mL (≈ 141 µM); and `Cc1c(C=O)c2ccccn2c1C(=O)c1ccccc1Cl`, with under 0.6 µg/mL.
Turning to `O=C(NC1CC1)c1cc(Cl)nc2ccccc12`, the kinetic solubility was over 37 µg/mL.
In the case of `Cc1cc(=O)[nH]c(-c2cccs2)n1`, the kinetic solubility is over 28.8 µg/mL.
The result for `COC(=O)CC(NC(=O)c1cccs1)c1ccc(OC)c(OC)c1` (configuration not stated) reads over 52.4 µg/mL; that for `O=C(CCl)c1cc2c3c(c1)CC(=O)N3CCC2`, over 37.5 µg/mL.
Then `CC(CCc1ccccc1)NC(=O)c1ccccc1F` (configuration not stated), with 34.4 µg/mL (≈ 127 µM); and `CN(C)CCSC1c2ccccc2CSc2ccccc21.Cl` (configuration not stated), with 51.6 µg/mL; and `Cn1c(SCC(=O)NC2CC2)nnc1-c1cccs1`, with over 44.2 µg/mL.
Then `COc1ccc(NC(=O)C2(c3cccs3)CCOCC2)cc1`, with 36.4 µg/mL (≈ 115 µM); and `Cn1cccc1-c1nc2ccccc2n1C`, with over 31.7 µg/mL; and `S=C(Nc1nc2c(s1)CCCC2)NC1CC1`, with 5.7 µg/mL (≈ 22.5 µM).
`O=C(NCc1c(O)ccc2ccccc12)c1ccccc1` had a kinetic solubility of 1 µg/mL (≈ 3.61 µM).
In turn, `N#Cc1ccc(NCCc2ccccn2)c([N+](=O)[O-])c1` displayed a solubility (kinetic) of over 40.2 µg/mL.
Then `CCc1ccc(N2CCN(CCNC(=O)Nc3ccccc3)CC2)cc1`, with 1.3 µg/mL (≈ 3.69 µM); and `N#CC1(Nc2cccc(Br)c2)C(=O)Nc2ccccc21` (configuration not stated), with over 49.2 µg/mL.
The result for `Cc1csc(=O)n1CCC(=O)OC(C)C(=O)NCc1ccccc1` (configuration not stated) reads over 52.3 µg/mL; that for `COc1ccc(C(=O)Nc2ccc3ccccc3n2)cc1OC`, 0.7 µg/mL (≈ 2.27 µM).
Then `FC(F)(F)c1ccc(NC2=NCCC2)cc1`, with over 34.2 µg/mL; and `COc1ccc(Nc2nc(N3CCOCC3)nc(N3CCOCC3)n2)cc1`, with 1.4 µg/mL (≈ 3.76 µM); and `CC(=O)CCN1C(=O)NC2(CCCc3ccccc32)C1=O` (configuration not stated), with over 42.9 µg/mL.
`O=C1CC2c3ccccc3C1C1C(=O)N(CCO)C(=O)C21` (configuration not stated): the solubility (kinetic) was over 42.8 µg/mL.
Regarding `O=C(NCCO)C(=O)Nc1cc2c3c(c1)CCN3C(=O)CC2`, the solubility (kinetic) is over 45.5 µg/mL.
Then `COc1ccc(NC(=O)/C=C/c2ccc(OC(F)F)cc2)cn1`, with 2 µg/mL (≈ 6.24 µM); and `O=C(O)C1Cc2[nH]cnc2C(c2cccc([N+](=O)[O-])c2)N1` (configuration not stated), with 43.1 µg/mL (≈ 150 µM).
In the case of `CCN(C(=O)CSc1cccc[n+]1[O-])c1ccccc1`, the kinetic solubility was over 43.3 µg/mL.
Then `Cc1[nH]c2ccccc2c1CCNC(=O)c1ccc2nccnc2c1`, with 41.1 µg/mL (≈ 124 µM); and `Cc1cccc(C)c1N1CCN(S(=O)(=O)c2ccccc2)CC1`, with under 0.4 µg/mL; and `O=C(O)c1cncc(C#Cc2ccccc2)c1`, with over 33.5 µg/mL.
For the compound `Cc1ccc2nc(SCC(=O)NC3CCS(=O)(=O)C3)[nH]c2c1` (configuration not stated), the kinetic solubility is 48.3 µg/mL (≈ 142 µM).
